ChEMBL document CHEMBL5512661, “Design, synthesis, and biological evaluation of 3-phenyl substituted pyridine derivatives as potential dual inhibitors of XOR and URAT1” (Eur J Med Chem, 2024)
The source made the active and inactive calls. No cut-off for these calls is given here.

Legend:
[1] = target: T1, Solute carrier family 22 member 12 (Homo sapiens, UniProt Q96S37); assay: Inhibition of human URAT1 expressed in HEK293T cells using 6-carboxylic fluorescein substrate by fluorescence assay; format: cell-based
T1 sequence (Q96S37 whole entry): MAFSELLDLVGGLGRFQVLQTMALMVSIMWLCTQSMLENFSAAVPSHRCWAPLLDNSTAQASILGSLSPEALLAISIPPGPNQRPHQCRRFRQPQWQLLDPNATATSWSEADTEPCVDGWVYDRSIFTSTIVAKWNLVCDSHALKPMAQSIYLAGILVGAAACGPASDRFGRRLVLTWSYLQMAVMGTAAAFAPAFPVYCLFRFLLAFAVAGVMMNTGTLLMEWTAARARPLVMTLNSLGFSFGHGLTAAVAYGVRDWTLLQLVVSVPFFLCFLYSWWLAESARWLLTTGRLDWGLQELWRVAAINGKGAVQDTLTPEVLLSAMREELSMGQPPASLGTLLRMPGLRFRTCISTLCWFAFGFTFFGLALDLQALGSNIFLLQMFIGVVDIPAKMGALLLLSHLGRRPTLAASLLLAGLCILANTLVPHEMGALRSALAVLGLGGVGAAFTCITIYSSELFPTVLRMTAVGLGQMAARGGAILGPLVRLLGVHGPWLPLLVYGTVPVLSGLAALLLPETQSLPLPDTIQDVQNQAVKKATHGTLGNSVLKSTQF

[2] = target: Xanthine dehydrogenase/oxidase (Homo sapiens, UniProt P47989); assay: Inhibition of XOR (unknown origin) using xanthine as substrate measured for 10 mins by spectrophotometry
URAT1 (SLC22A12) = target: T2, URAT1 (SLC22A12) (Homo sapiens, UniProt Q96S37); assay: Inhibition of human URAT1 expressed in HEK293T cells using 6-carboxylic fluorescein substrate at 100 uM by fluorescence assay relative to control; format: cell-based; details: HEK293T cells expressing human URAT1, probe 6-carboxylic fluorescein
T2 sequence (Q96S37 whole entry): T1 sequence (Q96S37 whole entry)

Mus musculus [3] = assay: Hypouricemic effect in potassium oxonate/hypoxanthine-induced acute hyperuricemia ICR mouse model assessed as decrease in serum uric acid level measured after 1 hr drug administration; format: functional, organism-based
Mus musculus [4] = assay: Hypouricemic effect in potassium oxonate/hypoxanthine-induced acute hyperuricemia ICR mouse model assessed as decrease in serum uric acid level at 5 mg/kg, gavage measured after 3 to 9 hrs of drug administration; format: functional, organism-based; details: time 3-9 hrs
[5] = target: T1, Solute carrier family 22 member 12; assay: Inhibition of human URAT1 expressed in HEK293T cells using 6-carboxylic fluorescein substrate at 1000 uM by fluorescence assay; format: cell-based

Xanthine dehydrogenase/oxidase, sequence (P47989 whole entry): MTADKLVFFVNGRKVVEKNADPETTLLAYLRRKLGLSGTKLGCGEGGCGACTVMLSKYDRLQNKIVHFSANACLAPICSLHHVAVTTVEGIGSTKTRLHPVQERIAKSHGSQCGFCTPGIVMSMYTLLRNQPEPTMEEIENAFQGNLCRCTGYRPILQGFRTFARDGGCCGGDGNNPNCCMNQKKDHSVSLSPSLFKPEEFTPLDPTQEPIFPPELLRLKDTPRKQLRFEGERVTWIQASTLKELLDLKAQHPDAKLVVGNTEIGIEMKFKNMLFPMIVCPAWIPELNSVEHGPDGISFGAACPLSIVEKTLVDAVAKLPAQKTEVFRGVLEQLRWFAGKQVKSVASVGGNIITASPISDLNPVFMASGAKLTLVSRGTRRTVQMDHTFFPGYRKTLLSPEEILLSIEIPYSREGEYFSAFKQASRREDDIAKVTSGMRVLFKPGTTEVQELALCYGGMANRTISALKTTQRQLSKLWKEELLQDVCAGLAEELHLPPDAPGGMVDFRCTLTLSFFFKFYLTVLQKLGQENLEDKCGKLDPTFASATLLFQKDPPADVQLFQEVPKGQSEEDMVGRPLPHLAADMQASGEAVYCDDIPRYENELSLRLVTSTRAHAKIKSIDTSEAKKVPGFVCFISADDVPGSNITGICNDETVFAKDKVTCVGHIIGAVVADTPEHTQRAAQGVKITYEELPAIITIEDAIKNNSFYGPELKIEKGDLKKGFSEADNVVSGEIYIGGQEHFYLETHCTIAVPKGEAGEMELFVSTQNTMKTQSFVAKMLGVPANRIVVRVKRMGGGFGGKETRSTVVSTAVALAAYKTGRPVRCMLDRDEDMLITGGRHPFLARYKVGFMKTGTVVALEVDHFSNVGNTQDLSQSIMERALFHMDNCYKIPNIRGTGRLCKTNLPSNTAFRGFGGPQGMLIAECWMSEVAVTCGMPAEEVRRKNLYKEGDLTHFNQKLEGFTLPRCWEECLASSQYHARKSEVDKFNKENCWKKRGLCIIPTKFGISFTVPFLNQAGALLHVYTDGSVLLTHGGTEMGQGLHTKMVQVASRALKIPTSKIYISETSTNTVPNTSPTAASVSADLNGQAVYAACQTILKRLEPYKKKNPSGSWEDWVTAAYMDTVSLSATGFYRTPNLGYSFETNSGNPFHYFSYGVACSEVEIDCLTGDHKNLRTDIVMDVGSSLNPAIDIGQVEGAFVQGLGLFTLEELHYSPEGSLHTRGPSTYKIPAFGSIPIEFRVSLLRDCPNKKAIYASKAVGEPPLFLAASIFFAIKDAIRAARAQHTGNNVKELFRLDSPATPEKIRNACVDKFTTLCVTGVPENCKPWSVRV

| SMILES | IC50 [1] | IC50 [2] | other results |
| --- | --- | --- | --- |
| O=C(O)c1ccc(-c2cncc(Nc3ccccc3)c2)cc1O | 33.4 µM | 0.026 µM | – |
| O=C(O)c1ccc(-c2cncc(Nc3ccc(Cl)cc3)c2)cc1O | 57.8 µM | 0.013 µM | – |
| CC(C)NC(=O)c1cncc(-c2ccc(C(=O)O)c(O)c2)c1 | 547 µM | 0.037 µM | – |
| O=C(O)c1ccc(-c2cncc(Oc3ccccc3)c2)cc1O | 86.7 µM | 0.036 µM | Activity (Mus musculus [3]): inactive; Activity (Mus musculus [4]): Active |
| Cc1ccc(Nc2cncc(-c3ccc(C(=O)O)c(O)c3)c2)cc1Cl | 51.7 µM | 0.043 µM | – |
| Cc1ccc(Nc2cncc(-c3ccc(C(=O)O)c(O)c3)c2)cc1C | 53.6 µM | 0.021 µM | – |
| CCc1oc2ccccc2c1C(=O)c1cc(Br)c(O)c(Br)c1 | – | – | Activity (Mus musculus [4]): Active |
| Cc1ccc(Oc2cncc(-c3ccc(C(=O)O)c(O)c3)c2)cc1 | 106 µM | 0.035 µM | – |
| O=C(O)c1ccc(-c2cncc(Oc3cccc(Cl)c3)c2)cc1O | 55.9 µM | 0.045 µM | – |
| Cc1cccc(Nc2cncc(-c3ccc(C(=O)O)c(O)c3)c2)c1 | 56.9 µM | 0.023 µM | – |
| CCc1ccc(Nc2cncc(-c3ccc(C(=O)O)c(O)c3)c2)cc1 | 31.5 µM | 0.026 µM | – |
| O=C(O)c1ccc(-c2cncc(Nc3ccc(F)cc3)c2)cc1O | 91.2 µM | 0.015 µM | – |
| Cc1cccc(Oc2cncc(-c3ccc(C(=O)O)c(O)c3)c2)c1 | 86.2 µM | 0.026 µM | – |
| O=C(O)c1ccc(-c2cncc(Oc3ccc(F)cc3)c2)cc1O | 134 µM | 0.04 µM | – |
| Cc1nc(C)c(-c2csc(Nc3ccc(O)c(C(=O)O)c3)n2)s1 | – | 3.95 µM | inhibition at 100 µM (URAT1 (SLC22A12)): 35.5% |
| CC(C)(C)c1ccc(Nc2cncc(-c3ccc(C(=O)O)c(O)c3)c2)cc1 | 70.3 µM | 0.041 µM | – |
| CC(C)NC(=O)c1cncc(-c2cccc(C(=O)O)c2)c1 | – | > 100 µM | inhibition (INH) [5]: Not Active |

The next lines start with results.

| IC50 [1] | IC50 [2] | SMILES | other results |
| --- | --- | --- | --- |
| 80.7 µM | 0.019 µM | O=C(O)c1ccc(-c2cncc(Nc3ccc(Cl)c(Cl)c3)c2)cc1O | – |
| > 1000 µM | > 100 µM | CC(C)NC(=O)c1cncc(-c2ccc(Cl)c(C(=O)O)c2)c1 | – |
| 30.6 µM | 0.03 µM | Cc1ccc(Nc2cncc(-c3ccc(C(=O)O)c(O)c3)c2)cc1F | – |
| 36.8 µM | 0.016 µM | O=C(O)c1ccc(-c2cncc(Nc3ccc(F)c(Cl)c3)c2)cc1O | – |
| – | 6.4 µM | CC(=O)c1ccc(-c2cncc(C(=O)NC(C)C)c2)cc1 | inhibition at 100 µM (URAT1 (SLC22A12)): 15.6% |
| > 1000 µM | > 100 µM | CC(C)NC(=O)c1cncc(-c2ccc(F)c(C(=O)O)c2)c1 | – |
| 124 µM | 0.121 µM | CC(C)(C)c1ccc(Oc2cncc(-c3ccc(C(=O)O)c(O)c3)c2)cc1 | Activity (Mus musculus [3]): inactive; Activity (Mus musculus [4]): Active |
| – | 0.008 µM | Cc1nc(-c2ccc(OCC(C)C)c(C#N)c2)sc1C(=O)O [FEBUXOSTAT] | – |
| 43.6 µM | 0.004 µM | Cc1ccc(Nc2cncc(-c3ccc(C(=O)O)c(O)c3)c2)cc1 | – |
| 64.6 µM | 0.038 µM | O=C(O)c1ccc(-c2cncc(Oc3ccc(Cl)cc3)c2)cc1O | – |
| 221 µM | 80 µM | CC(C)NC(=O)c1cncc(-c2ccc(O)c(C(=O)O)c2)c1 | – |
| – | 75.4 µM | CC(C)NC(=O)c1cncc(-c2ccc(C#N)cc2)c1 | inhibition (INH) [5]: Not Active |
| 12.9 µM | 0.006 µM | O=C(O)c1ccc(-c2cncc(Nc3cccc(Cl)c3)c2)cc1O | – |
| 58.3 µM | 0.016 µM | COc1ccc(Nc2cncc(-c3ccc(C(=O)O)c(O)c3)c2)cc1 | – |
| – | 0.59 µM | CC(C)NC(=O)c1cncc(-c2ccc(C(=O)O)cc2)c1 | inhibition (INH) [5]: Not Active |
